According to PubChem BioAssay AID2060607 (Molecular Pharmacology Branch, DTP, NCI, 2025):
Values joined by “and” are separate entries in the source; they are usually repeats but may differ in a detail not shown here. Equal entries are not always repeated.

Tested on: 876862-298-R-J1-PDC complex spheroids, viability % test/control
Assay: Anticancer human tumor 876862-298-R-J1-PDC patient-derived endometrial carcinoma cell line growth inhibition [CLK]
Conditions: for viability, T/C: stronger effect = lower value; active means viability on the fitted dose curve at most 10% of control; inactive means the rest
In short: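 Multi-cell-type spheroids combined patient-derived tumor cells with HUVEC endothelial cells and human mesenchymal stem cells. Paired agents were dosed in half-log steps down from about clinical Cmax, or from 10 microM where Cmax was unknown.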

[1] = curve of first compound, second compound 0.0316 µM
[2] = curve of first compound, second compound 0.1 µM
[3] = curve of first compound, second compound 0.316 µM
[4] = curve of first compound, second compound 1 µM
[5] = curve of first compound, second compound 3.16 µM
[6] = curve of first compound, second compound 10 µM
[7] = second compound 0.0316 µM, first compound 0.0316 µM
[8] = second compound 0.0316 µM, first compound 0.1 µM
[9] = second compound 0.0316 µM, first compound 0.316 µM
[10] = second compound 0.0316 µM, first compound 1 µM
[11] = second compound 0.0316 µM, first compound 3.16 µM
[12] = second compound 0.0316 µM, first compound 10 µM
[13] = second compound 0.1 µM, first compound 0.0316 µM
[14] = second compound 0.1 µM, first compound 0.1 µM
[15] = second compound 0.1 µM, first compound 0.316 µM
[16] = second compound 0.1 µM, first compound 1 µM
[17] = second compound 0.1 µM, first compound 3.16 µM
[18] = second compound 0.1 µM, first compound 10 µM
[19] = second compound 0.316 µM, first compound 0.0316 µM
[20] = second compound 0.316 µM, first compound 0.1 µM
[21] = second compound 0.316 µM, first compound 0.316 µM
[22] = second compound 0.316 µM, first compound 1 µM
[23] = second compound 0.316 µM, first compound 3.16 µM
[24] = second compound 0.316 µM, first compound 10 µM
[25] = second compound 1 µM, first compound 0.0316 µM
[26] = second compound 1 µM, first compound 0.1 µM
[27] = second compound 1 µM, first compound 0.316 µM
[28] = second compound 1 µM, first compound 1 µM
[29] = second compound 1 µM, first compound 3.16 µM
[30] = second compound 1 µM, first compound 10 µM
[31] = second compound 3.16 µM, first compound 0.0316 µM
[32] = second compound 3.16 µM, first compound 0.1 µM
[33] = second compound 3.16 µM, first compound 0.316 µM
[34] = second compound 3.16 µM, first compound 1 µM
[35] = second compound 3.16 µM, first compound 3.16 µM
[36] = second compound 3.16 µM, first compound 10 µM
[37] = second compound 10 µM, first compound 0.0316 µM
[38] = second compound 10 µM, first compound 0.1 µM
[39] = second compound 10 µM, first compound 0.316 µM
[40] = second compound 10 µM, first compound 1 µM
[41] = second compound 10 µM, first compound 3.16 µM
[42] = second compound 10 µM, first compound 10 µM
[43] = second compound 0.0316 µM, first compound 0.000949 µM
[44] = second compound 0.0316 µM, first compound 0.003 µM
[45] = second compound 0.0316 µM, first compound 0.00949 µM
[46] = second compound 0.0316 µM, first compound 0.03 µM
[47] = second compound 0.0316 µM, first compound 0.0949 µM
[48] = second compound 0.0316 µM, first compound 0.3 µM
[49] = second compound 0.1 µM, first compound 0.000949 µM
[50] = second compound 0.1 µM, first compound 0.003 µM
[51] = second compound 0.1 µM, first compound 0.00949 µM
[52] = second compound 0.1 µM, first compound 0.03 µM
[53] = second compound 0.1 µM, first compound 0.0949 µM
[54] = second compound 0.1 µM, first compound 0.3 µM
[55] = second compound 0.316 µM, first compound 0.000949 µM
[56] = second compound 0.316 µM, first compound 0.003 µM
[57] = second compound 0.316 µM, first compound 0.00949 µM
[58] = second compound 0.316 µM, first compound 0.03 µM
[59] = second compound 0.316 µM, first compound 0.0949 µM
[60] = second compound 0.316 µM, first compound 0.3 µM
[61] = second compound 1 µM, first compound 0.000949 µM
[62] = second compound 1 µM, first compound 0.003 µM
[63] = second compound 1 µM, first compound 0.00949 µM
[64] = second compound 1 µM, first compound 0.03 µM
[65] = second compound 1 µM, first compound 0.0949 µM
[66] = second compound 1 µM, first compound 0.3 µM
[67] = second compound 3.16 µM, first compound 0.000949 µM
[68] = second compound 3.16 µM, first compound 0.003 µM
[69] = second compound 3.16 µM, first compound 0.00949 µM
[70] = second compound 3.16 µM, first compound 0.03 µM
[71] = second compound 3.16 µM, first compound 0.0949 µM
[72] = second compound 3.16 µM, first compound 0.3 µM
[73] = second compound 10 µM, first compound 0.000949 µM
[74] = second compound 10 µM, first compound 0.003 µM
[75] = second compound 10 µM, first compound 0.00949 µM
[76] = second compound 10 µM, first compound 0.03 µM
[77] = second compound 10 µM, first compound 0.0949 µM
[78] = second compound 10 µM, first compound 0.3 µM
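Further: spheroids exposed to drugs for 7 days before readout.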
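Wherever viability, T/C is given: 100% = DMSO vehicle control wells.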

Nc1ccn(C2OC(CO)C(O)C2(F)F)c(=O)n1 (configuration not stated) + CN1CCN(c2cc(C(=O)Nc3cc4cc(-c5cnn(C)c5)ccc4cn3)ccn2)CC1
active: viability, T/C [8] 8.64% | viability, T/C [9] 6.4% | viability, T/C [10] 7.52% | viability, T/C [11] 6.95% | viability, T/C [12] 5.95% | viability, T/C [14] 8.73% | viability, T/C [15] 7.61% | viability, T/C [16] 7.32% | viability, T/C [17] 7.36% | viability, T/C [18] 6.15% | viability, T/C [19] 1.98% | viability, T/C [20] 2.23% | viability, T/C [21] 2.31% | viability, T/C [22] 2.07% | viability, T/C [23] 1.76% | viability, T/C [24] 1.74% | viability, T/C [25] 0.86% | viability, T/C [26] 0.6% | viability, T/C [27] 1.16% | viability, T/C [28] 0.96% | viability, T/C [29] 0.79% | viability, T/C [30] 0.99% | viability, T/C [31] 0.84% | viability, T/C [32] 0.93% | viability, T/C [33] 0.9% | viability, T/C [34] 0.86% | viability, T/C [35] 1.01% | viability, T/C [36] 0.93% | viability, T/C [37] 0.55% | viability, T/C [38] 0.43% | viability, T/C [39] 0.48% | viability, T/C [40] 0.64% | viability, T/C [41] 0.74% | viability, T/C [42] 0.72%
< 0.0316 µM: IC50 [1] | IC50 [2] | IC50 [3] | IC50 [4] | IC50 [5] | IC50 [6]
inactive: viability, T/C [7] 22.6% | viability, T/C [13] 13.8%

CC(C)CC(NC(=O)C(Cc1ccccc1)NC(=O)c1cnccn1)B(O)O (configuration not stated) + CNC(=O)c1ccc(Nc2nc(OC3CCCC3)c3c(-c4ccc5nc(C)oc5c4)c[nH]c3n2)c(OC)c1
active: viability, T/C [45] 0.67% | viability, T/C [46] 0.44% | viability, T/C [47] 1.97% | viability, T/C [48] 1.37% | viability, T/C [50] 7.8% | viability, T/C [51] 0.68% | viability, T/C [52] 0.53% | viability, T/C [53] 1.95% | viability, T/C [54] 0.42% | viability, T/C [56] 5.92% | viability, T/C [57] 1.95% | viability, T/C [58] 0.56% | viability, T/C [59] 1.66% | viability, T/C [60] 0.96% | viability, T/C [62] 4.5% | viability, T/C [63] 0.69% | viability, T/C [64] 0.62% | viability, T/C [65] 1.84% | viability, T/C [66] 0.22% | viability, T/C [68] 3.22% | viability, T/C [69] 0.41% | viability, T/C [70] 0.44% | viability, T/C [71] 1.98% | viability, T/C [72] 1.11% | viability, T/C [74] 2.73% | viability, T/C [75] 0.85% | viability, T/C [76] 0.4% | viability, T/C [77] 0.82% | viability, T/C [78] 1.17%
< 0.000949 µM: IC50 [2] | IC50 [3] | IC50 [4] | IC50 [5] | IC50 [6]
inactive: viability, T/C [43] 78.1% | viability, T/C [44] 10.6% | viability, T/C [49] 47.3% | viability, T/C [55] 43.2% | viability, T/C [61] 38.4% | viability, T/C [67] 27.6% | viability, T/C [73] 23.3%
0.00153 µM: IC50 [1]

COc1cccc2c1C(=O)c1c(O)c3c(c(O)c1C2=O)CC(O)(C(=O)CO)CC3OC1CC(N)C(O)C(C)O1 (configuration not stated) + CN1CCN(c2cc(C(=O)Nc3cc4cc(-c5cnn(C)c5)ccc4cn3)ccn2)CC1
< 0.0316 µM: IC50 [1] | IC50 [2] | IC50 [3] | IC50 [4] | IC50 [5] | IC50 [6]
inactive: viability, T/C [7] 31.7% | viability, T/C [8] 11.8% | viability, T/C [13] 19.7% | viability, T/C [14] 11.4%
active: viability, T/C [9] 7.2% | viability, T/C [10] 5.47% | viability, T/C [11] 0.87% | viability, T/C [12] 4.47% | viability, T/C [15] 8.05% | viability, T/C [16] 3.31% | viability, T/C [17] 1.71% | viability, T/C [18] 4.36% | viability, T/C [19] 1.75% | viability, T/C [20] 1.55% | viability, T/C [21] 1.57% | viability, T/C [22] 0.79% | viability, T/C [23] 1.62% | viability, T/C [24] 3.91% | viability, T/C [25] 0.91% | viability, T/C [26] 0.64% | viability, T/C [27] 0.76% | viability, T/C [28] 0.97% | viability, T/C [29] 1.41% | viability, T/C [30] 4.08% | viability, T/C [31] 1.18% | viability, T/C [32] 1.91% | viability, T/C [33] 0.9% | viability, T/C [34] 0.76% | viability, T/C [35] 2.8% | viability, T/C [36] 3.09% | viability, T/C [37] 0.55% | viability, T/C [38] 0.59% | viability, T/C [39] 1.41% | viability, T/C [40] 0.97% | viability, T/C [41] 0.51% | viability, T/C [42] 1.61%

CN1CCN(c2cc(C(=O)Nc3cc4cc(-c5cnn(C)c5)ccc4cn3)ccn2)CC1
inactive: viability, T/C (compound 0.0316 µM) 95.1% [middle of 12 runs] | viability, T/C (compound 0.1 µM) 49.8% [middle of 12 runs]
active: viability, T/C (compound 0.316 µM) 3.46% [middle of 12 runs] | viability, T/C (compound 1 µM) 1.68% [middle of 12 runs] | viability, T/C (compound 3.16 µM) 1.49% [middle of 12 runs] | viability, T/C (compound 10 µM) 1.35% [middle of 12 runs]
99.4 nM [middle of 12 runs]: IC50 (compound alone, run of 09/18/2023)

C=C(F)C(=O)N1CCN(c2nc(OCC3CCCN3C)nc3c2CCN(c2cccc4cccc(Cl)c24)C3)CC1CC#N (configuration not stated)
2.35% and 15.5%: viability, T/C (compound 10 µM)
5.2 µM and 6.13 µM: IC50 (curve of compound)
inactive: viability, T/C (compound 0.0316 µM) 97.6% and 102% | viability, T/C (compound 0.1 µM) 97.9% and 102% | viability, T/C (compound 0.316 µM) 92.6% and 96.1% | viability, T/C (compound 1 µM) 102% | viability, T/C (compound 3.16 µM) 86.3% and 96.5%

C=CC(=O)Nc1cc(Nc2nccc(-c3cn(C)c4ccccc34)n2)c(OC)cc1N(C)CCN(C)C + CNC(=O)c1ccc(Nc2nc(OC3CCCC3)c3c(-c4ccc5nc(C)oc5c4)c[nH]c3n2)c(OC)c1
< 0.000949 µM: IC50 [2] | IC50 [3] | IC50 [4] | IC50 [5] | IC50 [6]
inactive: viability, T/C [43] 74.5% | viability, T/C [44] 79.6% | viability, T/C [45] 69.1% | viability, T/C [46] 64% | viability, T/C [47] 53.5% | viability, T/C [48] 46.6% | viability, T/C [49] 49.2% | viability, T/C [50] 46% | viability, T/C [51] 44.2% | viability, T/C [52] 44.1% | viability, T/C [53] 41.7% | viability, T/C [54] 31.3% | viability, T/C [55] 46.4% | viability, T/C [56] 41.3% | viability, T/C [57] 42.3% | viability, T/C [58] 41.1% | viability, T/C [59] 34% | viability, T/C [60] 27.8% | viability, T/C [61] 36.5% | viability, T/C [62] 30.8% | viability, T/C [63] 32.7% | viability, T/C [64] 26.9% | viability, T/C [65] 30.2% | viability, T/C [66] 27.4% | viability, T/C [67] 24.1% | viability, T/C [68] 27.6% | viability, T/C [69] 19.2% | viability, T/C [70] 20.9% | viability, T/C [71] 20% | viability, T/C [72] 19% | viability, T/C [73] 23.1% | viability, T/C [74] 23.4% | viability, T/C [75] 21.7% | viability, T/C [76] 19.7% | viability, T/C [77] 17.9% | viability, T/C [78] 17.4%
0.17 µM: IC50 [1]
